The text below walks through data of ChEMBL document CHEMBL1201862, “PubChem BioAssay data set” (2004).

In one assay the target is Genome polyprotein (Hepatitis C virus, UniProt Q2Q167). Put plainly: disruption of hepatitis C core self-association – biochemical, TR-FRET, dose response (AID 2159).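 Note: blocks dimerization of HCV core protein measured by TR-FRET between tagged core106 pairs.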 Also noted: species or system Hepacivirus hominis.
The target of assay [1] is T1, Fatty acid synthase (Homo sapiens, UniProt P49327). Put plainly: inhibition of human FAS-TE enzyme activity – biochemical, endpoint fluorescence intensity, uHTS hits, dose response (AID 624327).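 Note: fluorescence from hydrolysis of an O-methyl fluorescein acyl ester substrate by the enzyme.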 The format is functional.
The target of assay [2] is T1, Fatty acid synthase. Put plainly: inhibition of human FAS-TE enzyme activity – biochemical, kinetic fluorescence intensity, dose response (AID 624326).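 Note: rate of fluorescence rise from hydrolysis of a fluorogenic O-methyl fluorescein ester substrate.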 The format is functional.
Assay [3] in a line: Luminescent dose response cell-based high throughput screening assay for inhibitors of the Janus kinase 2 mutant JAK2V617F. [Related pubchem assays: 1446 (Primary screen.), 1521 (Confirmation assay.), 1486 (Counter screen.)]. The format is functional. A general note: A counterscreen serves to expose hits that act by an unwanted route or on another target.
Another assay has as its system INS1. Put plainly: INS-1E survival protection against cytokine death – cell-based, luminescence, retest, dose response (AID 449756).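 Note: cell death triggered by IL-1 beta plus TNF-alpha plus IFN-gamma mixture; protective hits raise ATP signal compared with cytokine alone wells.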 The settings on record: Rattus norvegicus. It is filed as functional.
The target in assay [4] is T2, RNA-binding protein pos-1 (Caenorhabditis elegans, UniProt G5EF15).
T2 sequence (G5EF15 whole entry): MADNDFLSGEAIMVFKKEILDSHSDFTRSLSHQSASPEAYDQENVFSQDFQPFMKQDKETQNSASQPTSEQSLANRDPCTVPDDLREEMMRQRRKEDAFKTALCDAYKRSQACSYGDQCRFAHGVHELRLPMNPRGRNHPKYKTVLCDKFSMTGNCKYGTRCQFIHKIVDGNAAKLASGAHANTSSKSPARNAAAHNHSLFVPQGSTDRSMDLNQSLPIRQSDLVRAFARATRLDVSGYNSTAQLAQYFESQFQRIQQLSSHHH
Put plainly: disruptors of C. elegans POS-1 RNA interaction – biochemical, fluorescence polarization, dose response (AID 1964).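 Note: purified POS-1 fused to maltose binding protein made in E. coli; potency of compounds blocking POS-1 binding to fluorescent RNA.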 A general note: Fluorescence polarisation rises when a labelled molecule tumbles more slowly, as on binding a larger partner.

Assay [5] relates to Streptococcus sp. 'group A'. Put plainly: Streptococcus pyogenes SK(-)GAS viability under kanamycin – luminescence, BacTiterGlo, confirmation, counter-screen for streptokinase expression inhibitor project, dose response (AID 1900). The format is functional, organism-based.
For assay [6], the target named is T3, Zinc finger protein mex-5 (Caenorhabditis elegans, UniProt Q9XUB2).
T3 sequence (Q9XUB2 whole entry): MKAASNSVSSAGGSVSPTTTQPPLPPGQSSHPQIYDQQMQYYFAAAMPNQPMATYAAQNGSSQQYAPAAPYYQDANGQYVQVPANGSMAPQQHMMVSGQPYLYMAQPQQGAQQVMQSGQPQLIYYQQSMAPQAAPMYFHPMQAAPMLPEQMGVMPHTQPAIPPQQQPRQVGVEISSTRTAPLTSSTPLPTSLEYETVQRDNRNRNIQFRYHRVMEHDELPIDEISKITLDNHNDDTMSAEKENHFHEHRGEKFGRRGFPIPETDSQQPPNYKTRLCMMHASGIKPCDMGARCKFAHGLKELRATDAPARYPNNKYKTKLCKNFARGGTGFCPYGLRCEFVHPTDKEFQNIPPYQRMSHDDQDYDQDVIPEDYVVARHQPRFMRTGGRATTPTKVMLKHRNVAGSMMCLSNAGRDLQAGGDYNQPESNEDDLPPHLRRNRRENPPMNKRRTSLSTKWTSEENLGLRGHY
Put plainly: potency of MEX-5 RNA-binding blockers – biochemical, C. elegans, fluorescence polarization, dose response (AID 1960).

Another assay addresses T4, Streptokinase A (Streptococcus pyogenes serotype M1, UniProt P10520).
T4 sequence (P10520 whole entry): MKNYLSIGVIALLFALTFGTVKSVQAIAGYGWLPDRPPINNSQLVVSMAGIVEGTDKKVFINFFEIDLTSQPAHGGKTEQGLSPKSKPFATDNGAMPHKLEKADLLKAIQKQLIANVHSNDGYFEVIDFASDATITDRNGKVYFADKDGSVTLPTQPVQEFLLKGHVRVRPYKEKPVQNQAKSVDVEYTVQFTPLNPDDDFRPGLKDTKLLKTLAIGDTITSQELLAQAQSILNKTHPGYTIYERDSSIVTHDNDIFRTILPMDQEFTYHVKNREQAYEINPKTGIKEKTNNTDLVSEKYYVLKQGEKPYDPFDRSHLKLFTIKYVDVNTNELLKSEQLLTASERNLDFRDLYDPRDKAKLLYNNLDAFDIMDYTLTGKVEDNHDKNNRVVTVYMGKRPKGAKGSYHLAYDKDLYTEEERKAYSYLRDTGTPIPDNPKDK
Put plainly: viability-normalized secreted streptokinase activity reduction – plasminogen activation absorbance, OD405, dose response (AID 1914).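 Note: secreted streptokinase activity via plasminogen activation per viability signal from cell pellet.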 The format is functional, Streptococcus pyogenes M1 GAS.

Assay [7] deals with Bifunctional protein GlmU (Mycobacterium tuberculosis, UniProt P9WMN3). Put plainly: Inhibitors of Mycobacterial Glucosamine-1-phosphate acetyl transferase (GlmU). Secondary screen. Also noted: species or system Mycobacterium tuberculosis H37Rv.
In assay [8] the target is Induced myeloid leukemia cell differentiation protein Mcl-1 (Homo sapiens, UniProt Q07820). The format is functional.
A further assay concerns Streptococcus. Put plainly: GAS UMAA2166 growth inhibition – luminescence, BacTiterGlo, counter-screen for streptokinase expression inhibitor project, dose response (AID 1915).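 Note: potency for reduction of bacterial viability or growth.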 It is filed as functional, organism-based.
The target of assay [9] is Voltage-gated inwardly rectifying potassium channel KCNH2 (Homo sapiens, UniProt Q12809). Put plainly: concentration-dependent hERG rescue from blockers – cell-based, thallium flux, dose response (AID 2121). It is filed as ADME. In general terms: hERG is a cardiac potassium channel; its block is linked to QT prolongation.
Assay [10] concerns the target Transitional endoplasmic reticulum ATPase (Homo sapiens, UniProt P55072, C522A). Put plainly: Luminescence counterscreen assay for p97 inhibitors: dose response biochemical high throughput screening assay to identify inhibitors of the C522A mutant p97 ATPase: synthesized compounds. [Related pubchem assays: 1481, 1517, 1551 ].
The target in assay [11] is Transitional endoplasmic reticulum ATPase (Homo sapiens, UniProt P55072). Put plainly: Luminescence dose response biochemical high throughput screening assay for inhibitors of the p97 ATPase: synthesized compounds. [Related pubchem assays: 1481, 1517 ].
In assay [12] the target is Diphosphomevalonate decarboxylase (Streptococcus pneumoniae serotype 2 (strain D39 / NCTC 7466), UniProt Q9FD53). Put plainly: diphosphomevalonate decarboxylase inhibitor confirmation – biochemical, cuvette format, coupled NADH fluorescence (AID 1028). The format is functional.
In the next assay the test system is Vero. Put plainly: mammalian cell viability reduction – secondary assay, cytotoxicity control for West Nile virus antiviral project, dose response (AID 1650). The settings on record: Chlorocebus sabaeus. The format is functional.
A short description of assay [13]: HEK-293T viability loss after treatment – luminescence, T-cell screen hits, cytotoxicity control for TCR NF-kB inhibitor project, dose response (AID 489026).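 Note: cells exposed to compound about 14 hours before the viability readout.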 The format is functional, cell-based.
Assay [14] deals with T5, Tyrosine-protein phosphatase non-receptor type 7 (Homo sapiens, UniProt P35236).
T5 sequence (P35236 whole entry): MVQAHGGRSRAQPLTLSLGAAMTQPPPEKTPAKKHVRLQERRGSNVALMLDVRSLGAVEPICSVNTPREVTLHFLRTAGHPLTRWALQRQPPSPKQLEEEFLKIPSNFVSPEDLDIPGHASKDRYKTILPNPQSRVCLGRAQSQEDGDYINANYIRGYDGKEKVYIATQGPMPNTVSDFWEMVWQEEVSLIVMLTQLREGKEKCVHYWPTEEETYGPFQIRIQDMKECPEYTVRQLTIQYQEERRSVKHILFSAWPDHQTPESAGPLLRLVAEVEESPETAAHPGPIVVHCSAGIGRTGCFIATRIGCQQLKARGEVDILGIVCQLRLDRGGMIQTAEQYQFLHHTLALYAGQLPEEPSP
Put plainly: HePTP tyrosine phosphatase activity blockers – biochemical, absorbance, leukemia target, primary screen (AID 521). It is filed as functional.

Assay [15] deals with 5-hydroxytryptamine receptor 1A (Homo sapiens, UniProt P08908). The format is functional.
The nature of assay [16]: viability of PTEN-deleted HCT116 cells – cell-based, HCT116 PTEN knockout, dose response (AID 1047).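 Note: HCT116 colon tumor cells with PTEN knocked out; cells exposed to compound for 60 hours before readout; potency for loss of cell viability measured by luminescence.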 The format is functional.
The target of assay [17] is Protein-tyrosine kinase 2-beta (Homo sapiens, UniProt Q14289).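 Note: potency of inhibitors of PYK2 kinase phosphorylation of poly-GT substrate.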
A short description of assay [18]: viability of HCT116 lacking mutant beta-catenin – cell-based, human colon tumor, dose response (AID 1045).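 Note: HCT116 colon tumor cells with beta catenin knocked out; cells exposed to compound for 60 hours.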 The format is functional.
The target in assay [19] is T6, Dual specificity protein phosphatase 6 (Rattus norvegicus, UniProt Q64346).
T6 sequence (Q64346 whole entry): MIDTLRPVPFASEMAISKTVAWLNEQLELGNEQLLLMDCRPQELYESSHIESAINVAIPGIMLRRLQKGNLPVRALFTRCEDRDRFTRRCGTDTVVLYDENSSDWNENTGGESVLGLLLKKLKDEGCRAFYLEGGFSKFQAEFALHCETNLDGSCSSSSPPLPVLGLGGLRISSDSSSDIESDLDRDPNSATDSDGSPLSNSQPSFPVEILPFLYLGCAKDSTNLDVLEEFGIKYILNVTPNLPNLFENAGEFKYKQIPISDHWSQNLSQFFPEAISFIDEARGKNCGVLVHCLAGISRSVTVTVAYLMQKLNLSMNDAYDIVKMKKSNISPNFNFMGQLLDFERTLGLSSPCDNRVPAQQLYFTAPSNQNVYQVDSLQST
Put plainly: inhibition of rat DUSP6 enzyme activity – biochemical, in vitro, primary screen (AID 425).

Assay [20] concerns the target Mitogen-activated protein kinase 10 (Homo sapiens, UniProt P53779). Put plainly: Dose response biochemical screening assay for inhibitors of c-Jun N-Terminal Kinase 3 (JNK3). [Related pubchem assays: 746 ].

The source made the active and inactive calls.

T1 sequence (P49327 whole entry): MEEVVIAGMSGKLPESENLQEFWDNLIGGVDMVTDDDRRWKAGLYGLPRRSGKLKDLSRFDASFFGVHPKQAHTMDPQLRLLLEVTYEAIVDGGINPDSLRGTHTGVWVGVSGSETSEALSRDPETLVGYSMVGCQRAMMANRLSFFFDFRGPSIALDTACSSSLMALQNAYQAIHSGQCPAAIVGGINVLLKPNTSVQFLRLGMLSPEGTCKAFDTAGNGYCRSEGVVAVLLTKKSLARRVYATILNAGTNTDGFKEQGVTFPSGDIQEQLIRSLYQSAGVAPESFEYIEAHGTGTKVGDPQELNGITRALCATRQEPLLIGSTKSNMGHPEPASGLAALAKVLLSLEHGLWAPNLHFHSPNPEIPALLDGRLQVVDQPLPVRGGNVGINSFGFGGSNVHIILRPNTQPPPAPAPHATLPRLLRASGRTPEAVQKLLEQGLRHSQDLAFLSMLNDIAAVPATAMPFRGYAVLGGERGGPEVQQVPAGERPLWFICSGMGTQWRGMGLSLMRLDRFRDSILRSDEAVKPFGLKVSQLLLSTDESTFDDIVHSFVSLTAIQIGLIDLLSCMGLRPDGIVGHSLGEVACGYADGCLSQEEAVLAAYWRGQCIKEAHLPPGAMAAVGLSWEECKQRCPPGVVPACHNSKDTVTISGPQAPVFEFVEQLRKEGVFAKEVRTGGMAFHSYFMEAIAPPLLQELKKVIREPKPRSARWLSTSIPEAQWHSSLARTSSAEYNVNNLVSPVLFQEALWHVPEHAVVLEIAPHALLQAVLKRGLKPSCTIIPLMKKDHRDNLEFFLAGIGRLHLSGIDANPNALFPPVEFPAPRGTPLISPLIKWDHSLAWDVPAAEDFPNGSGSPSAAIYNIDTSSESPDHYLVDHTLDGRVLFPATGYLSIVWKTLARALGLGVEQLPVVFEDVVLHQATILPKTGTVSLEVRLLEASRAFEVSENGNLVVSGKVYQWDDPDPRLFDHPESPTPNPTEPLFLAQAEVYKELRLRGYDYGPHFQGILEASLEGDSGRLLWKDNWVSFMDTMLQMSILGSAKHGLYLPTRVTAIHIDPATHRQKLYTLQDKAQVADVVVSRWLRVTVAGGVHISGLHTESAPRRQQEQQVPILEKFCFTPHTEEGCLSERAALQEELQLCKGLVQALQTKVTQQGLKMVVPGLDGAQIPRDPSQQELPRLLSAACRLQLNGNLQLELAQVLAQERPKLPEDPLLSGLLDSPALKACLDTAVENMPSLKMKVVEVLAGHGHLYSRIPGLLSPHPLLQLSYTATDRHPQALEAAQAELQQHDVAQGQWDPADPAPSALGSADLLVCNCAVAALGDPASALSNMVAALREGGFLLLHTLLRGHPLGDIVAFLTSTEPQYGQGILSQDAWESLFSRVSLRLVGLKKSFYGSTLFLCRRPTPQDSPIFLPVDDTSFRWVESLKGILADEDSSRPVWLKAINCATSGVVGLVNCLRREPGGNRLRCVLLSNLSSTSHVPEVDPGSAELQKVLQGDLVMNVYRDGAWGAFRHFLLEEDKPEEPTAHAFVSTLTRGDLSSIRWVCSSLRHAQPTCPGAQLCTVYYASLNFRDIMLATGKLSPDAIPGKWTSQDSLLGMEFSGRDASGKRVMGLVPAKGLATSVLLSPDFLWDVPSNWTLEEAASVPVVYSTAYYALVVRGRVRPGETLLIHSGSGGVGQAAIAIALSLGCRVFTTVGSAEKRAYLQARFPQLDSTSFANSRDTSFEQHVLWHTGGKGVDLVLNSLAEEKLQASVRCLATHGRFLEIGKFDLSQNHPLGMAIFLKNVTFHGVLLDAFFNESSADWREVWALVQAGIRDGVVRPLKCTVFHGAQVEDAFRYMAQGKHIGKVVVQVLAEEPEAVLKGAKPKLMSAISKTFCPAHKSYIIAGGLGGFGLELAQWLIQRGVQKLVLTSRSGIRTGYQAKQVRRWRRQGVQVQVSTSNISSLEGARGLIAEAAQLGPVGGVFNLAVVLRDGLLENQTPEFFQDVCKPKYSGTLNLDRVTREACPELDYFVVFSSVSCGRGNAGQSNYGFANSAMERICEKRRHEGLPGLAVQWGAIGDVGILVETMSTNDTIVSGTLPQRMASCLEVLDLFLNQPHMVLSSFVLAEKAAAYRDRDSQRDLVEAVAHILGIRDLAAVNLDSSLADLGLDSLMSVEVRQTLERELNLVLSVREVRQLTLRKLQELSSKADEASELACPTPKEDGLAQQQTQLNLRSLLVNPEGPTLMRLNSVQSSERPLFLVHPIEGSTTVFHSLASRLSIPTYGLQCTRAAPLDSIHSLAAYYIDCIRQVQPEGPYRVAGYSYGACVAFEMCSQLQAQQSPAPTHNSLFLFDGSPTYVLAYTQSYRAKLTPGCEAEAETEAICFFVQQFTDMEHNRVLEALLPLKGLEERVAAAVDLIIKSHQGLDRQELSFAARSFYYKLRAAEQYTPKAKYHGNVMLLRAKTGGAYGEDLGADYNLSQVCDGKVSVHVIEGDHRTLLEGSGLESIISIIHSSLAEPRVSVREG
Sequence of Protein-tyrosine kinase 2-beta (Q14289 whole entry): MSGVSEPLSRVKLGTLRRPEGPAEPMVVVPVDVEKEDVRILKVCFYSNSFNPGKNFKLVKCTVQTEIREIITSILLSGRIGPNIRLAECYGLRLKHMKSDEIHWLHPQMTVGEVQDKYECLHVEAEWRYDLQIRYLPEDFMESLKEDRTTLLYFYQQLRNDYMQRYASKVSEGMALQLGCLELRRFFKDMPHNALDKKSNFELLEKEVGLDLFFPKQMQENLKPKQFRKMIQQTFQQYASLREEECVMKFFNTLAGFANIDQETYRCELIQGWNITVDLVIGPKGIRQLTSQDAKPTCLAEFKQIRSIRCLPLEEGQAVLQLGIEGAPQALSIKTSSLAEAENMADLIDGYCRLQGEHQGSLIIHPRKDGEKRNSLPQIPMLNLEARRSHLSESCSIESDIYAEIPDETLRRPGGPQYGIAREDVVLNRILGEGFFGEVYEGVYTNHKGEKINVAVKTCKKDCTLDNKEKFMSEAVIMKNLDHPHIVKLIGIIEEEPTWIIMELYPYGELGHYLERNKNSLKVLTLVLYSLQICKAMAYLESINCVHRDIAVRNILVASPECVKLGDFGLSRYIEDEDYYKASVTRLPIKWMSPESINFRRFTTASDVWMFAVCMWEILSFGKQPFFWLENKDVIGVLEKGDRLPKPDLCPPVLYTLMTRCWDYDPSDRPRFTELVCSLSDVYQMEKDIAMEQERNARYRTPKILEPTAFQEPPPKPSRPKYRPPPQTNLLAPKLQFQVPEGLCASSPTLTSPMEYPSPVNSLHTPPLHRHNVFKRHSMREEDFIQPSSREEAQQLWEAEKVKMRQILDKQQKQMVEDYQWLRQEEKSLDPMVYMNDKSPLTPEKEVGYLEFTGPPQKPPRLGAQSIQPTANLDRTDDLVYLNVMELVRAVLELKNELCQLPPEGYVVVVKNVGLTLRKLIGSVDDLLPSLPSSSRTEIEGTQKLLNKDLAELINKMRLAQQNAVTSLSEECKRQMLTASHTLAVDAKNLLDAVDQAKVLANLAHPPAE
Sequence of Voltage-gated inwardly rectifying potassium channel KCNH2 (Q12809 whole entry): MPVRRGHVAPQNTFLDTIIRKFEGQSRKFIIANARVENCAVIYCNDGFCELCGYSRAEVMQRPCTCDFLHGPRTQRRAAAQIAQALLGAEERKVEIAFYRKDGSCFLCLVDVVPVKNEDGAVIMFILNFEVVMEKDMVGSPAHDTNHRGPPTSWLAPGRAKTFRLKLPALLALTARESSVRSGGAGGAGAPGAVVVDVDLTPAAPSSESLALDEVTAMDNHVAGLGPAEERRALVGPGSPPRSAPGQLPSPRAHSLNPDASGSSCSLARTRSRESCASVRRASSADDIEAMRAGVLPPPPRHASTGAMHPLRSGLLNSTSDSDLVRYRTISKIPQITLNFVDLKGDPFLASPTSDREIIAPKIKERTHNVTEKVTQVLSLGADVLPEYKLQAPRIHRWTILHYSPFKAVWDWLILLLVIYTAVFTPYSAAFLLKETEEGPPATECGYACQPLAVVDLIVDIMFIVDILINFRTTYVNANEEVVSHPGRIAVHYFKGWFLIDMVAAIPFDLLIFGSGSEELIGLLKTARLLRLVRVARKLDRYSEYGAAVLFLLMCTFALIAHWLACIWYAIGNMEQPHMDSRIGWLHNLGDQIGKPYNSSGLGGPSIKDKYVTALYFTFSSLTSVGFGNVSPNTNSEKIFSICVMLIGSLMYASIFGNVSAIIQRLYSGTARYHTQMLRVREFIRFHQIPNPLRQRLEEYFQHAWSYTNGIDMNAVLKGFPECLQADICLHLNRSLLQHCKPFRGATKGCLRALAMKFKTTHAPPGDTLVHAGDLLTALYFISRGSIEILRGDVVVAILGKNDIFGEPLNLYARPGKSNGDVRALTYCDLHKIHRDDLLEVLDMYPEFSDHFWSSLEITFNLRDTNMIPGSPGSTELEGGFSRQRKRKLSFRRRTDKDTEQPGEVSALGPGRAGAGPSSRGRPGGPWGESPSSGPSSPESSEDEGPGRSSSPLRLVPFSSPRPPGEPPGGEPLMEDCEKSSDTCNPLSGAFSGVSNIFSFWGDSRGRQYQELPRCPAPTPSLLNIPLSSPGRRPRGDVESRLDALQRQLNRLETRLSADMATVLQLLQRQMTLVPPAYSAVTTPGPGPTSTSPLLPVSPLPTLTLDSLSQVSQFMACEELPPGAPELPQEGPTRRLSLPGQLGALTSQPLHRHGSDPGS
Sequence of Induced myeloid leukemia cell differentiation protein Mcl-1 (Q07820 whole entry): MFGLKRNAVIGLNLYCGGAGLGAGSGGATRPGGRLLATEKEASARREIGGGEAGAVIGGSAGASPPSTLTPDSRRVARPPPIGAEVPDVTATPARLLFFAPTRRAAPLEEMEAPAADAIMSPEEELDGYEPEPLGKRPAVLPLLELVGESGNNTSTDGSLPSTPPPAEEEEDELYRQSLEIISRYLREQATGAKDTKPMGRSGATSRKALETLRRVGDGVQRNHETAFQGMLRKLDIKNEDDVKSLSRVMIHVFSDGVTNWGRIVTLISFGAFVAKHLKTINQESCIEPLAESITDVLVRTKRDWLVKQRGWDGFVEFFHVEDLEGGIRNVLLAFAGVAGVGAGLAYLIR

Regarding `COc1ccc(C2CC(c3cccs3)=NN2C(=O)CSc2nc(=O)n3ccc(C)cc3n2)cc1` (stereo not given), the IC50 (usually the concentration at which inhibition is half-maximal) on Genome polyprotein was > 49.8 µM (not active); on Fatty acid synthase [1], 8.11 µM (active); at Fatty acid synthase [2] it was 7.51 µM (active).
With `CCCOc1ccc(C(=O)C(CN2CCOCC2)c2ccccc2)cc1` (stereo not given), the IC50 in assay [3] was 909 nM (active). In the assay with INS1, the AC50 (as a rule, the concentration at which the activity in the assay is half-maximal) is > 60 µM (inactive).
Regarding `O=C1NC(=S)/C(=C\c2ccc(-c3ccccc3Cl)o2)S1`, the EC50 (in general, the concentration giving half of the maximal effect) in [4] was > 300 µM (not active); in [5], 3.42 µM (active); in [6] it was > 300 µM (not active); at Streptokinase A it was 14.7 µM (active); in the assay with Streptococcus, 28.2 µM (active). Besides, the IC50 was 194 µM (active) in assay [7] and 3.31 µM (active) in [8].
With `N#Cc1c(NC(=O)c2cc(-n3cnnc3)ccc2Cl)sc2c1CCCC2`, in assay [9], the EC50 is 12.7 µM (active).
`N#Cc1ccc(Nc2nc(-c3ccc(C#N)cc3)cs2)cc1`: the IC50 in [10] and in [11] was > 50 µM (not active) throughout.
Turning to `CCCNC(=O)c1ccc(-n2sc3ccccc3c2=O)cc1`, in assay [12], the half-maximal inhibitory concentration (IC50) was 7.48 µM (active).
As for `CCOc1ccc2c(c1)OC(c1ccc(OC)cc1)(C(F)(F)F)NC2=O` (stereo not given), in the assay on Vero, the CC50 – broadly, the concentration giving 50% cytotoxicity – was 13.7 µM (active). The IC50 in [13] was > 80 µM (inactive).
On to `c1cc2c(cc1Cn1cnnn1)OCO2`, for which the IC50 in assay [14] was > 100 µM (not active).
As for `CN(C)CCOC(=O)c1cn(Cc2ccccc2)c2ccccc12`, the EC50 in [15] is > 50 µM (not active).
On to `O=C(Nc1cccc(-c2nc3ccccc3[nH]2)c1)c1cccc(NC(=O)c2ccco2)c1`, for which the results for the half-maximal effective concentration (EC50) in assay [16] and in [18] were 57.9 µM (active) and 53.7 µM (active), respectively. For the same compound, the IC50 in assay [17] was 5.03 µM (active); in [19], 2.5 µM (active); in assay [20], 68.5 µM (not active).
